# Reference: article PMC12232897, “Harnessing Negative Photochromism in Styryl Cyanines for Light‐Modulated Proton Transport” (Angewandte Chemie (International Ed. in English), 2025)
# Tests used:
# Assay type in all cases: physicochemical
# [1] = pKa in the dark and under light irradiation; details: for pKa: water:DMSO 99:1, dark, read-out: pKa dark (open form)
# Description: Since light‐induced cyclization is also associated with a change in the nature of the amino group of 1a–e, we investigated the change in their pK a upon light irradiation. This phenomenon has been already reported in the literature for other photoresponsive molecules,^[ [41], [42] ^] and it is recognized that, apart from being key in many biological processes, is a powerful tool for potential applications in catalysis^[ [43] ^] or self‐assembly.^[ [44] ^] […] Moreover, for compounds 1b and 1c, bearing methoxy groups, the change in pK a generated upon light irradiation is considerably smaller than for compounds 1d and 1e, bearing fluorine groups. This difference can be easily associated with the nature of the substituents, where for 1d–e the electron‐withdrawing effect of the fluorine favors a higher acidity of the closed isomers, contrarily to the effect of the electron‐donating groups for 1b–c.
# Solubility in solvents = details: solvent
# Description: Having explored the effect of substituents, we next focused on the impact of the medium. […] These findings can be explained using the reported hydrogen‐bond donor (HBD) acidity (Taft–Kamlet α‐scale) of the utilized solvents.^[ [39] ^] Such a big difference in thermal half‐life has to be associated with the proton transfer from the secondary amine (in the closed form) to the phenol group since the back relaxation from the closed form to the open conjugated form is a […] process. We hypothesize that solvents like water and methanol trigger a Grotthus‐like proton transfer mechanism which speeds up the back‐relaxation process, similar to what was previously reported for other phenol‐bearing photoswitches.^[ [40] ^]
# Similar to what is observed for the other compounds, the half‐life of closed 1f in water is extremely small (Table 1). This opens the opportunity of using 1f in out‐of‐equilibrium^[ [45] ^] and dissipative water‐based systems. Moreover, irradiation of 1f triggers the photo reactions that generate its respective closed indole‐like form, which compared to the closed forms of 1a–e also has a lower value of pK^hν (Table 1) and generates a higher ΔpK a value between the open and closed forms, being 1.7 pK a units, thanks to the electron‐withdrawing effect coming from the presence of a sulfonate group.
# [2] = Fatigue resistance / photostability under 365 nm irradiation; details: UV–vis absorbance kinetic experiments
Compound,pKa [1],Solubility (Solubility in solvents),ΔpKa between the open and closed forms ([1]; water:DMSO 99:1) [pK a units],Photostability on prolonged irradiation at 365 nm [2]
CC1(C)C(/C=C/c2ccccc2O)=Nc2ccccc21 [1a],4.3,soluble in both polar and apolar solvents,–,–
COc1ccc2c(c1)C(C)(C)C(/C=C/c1ccccc1O)=N2 [1b],4.6,–,–,–
COc1ccc(O)c(/C=C/C2=Nc3ccccc3C2(C)C)c1 [1c],4.3,–,–,–
CC1(C)C(/C=C/c2ccccc2O)=Nc2ccc(F)cc21 [1d],4.3,–,–,–
CC1(C)C(/C=C/c2cc(F)ccc2O)=Nc2ccccc21 [1e],4.3,–,–,–
CC1(C)C(/C=C/c2ccccc2O)=Nc2ccc(S(=O)(=O)[O-])cc21.[K+] [1f],3.9,fully soluble and fully switchable in water,1.7,–
COc1ccccc1/C=C/C1=Nc2ccccc2C1(C)C [1g],–,–,–,photodegradation of the sample
